Measured values taken from publication PMC9610855, “Valorisation of the Inhibitory Potential of Fresh and Dried Fruit Extracts of Prunus spinosa L. towards Carbohydrate Hydrolysing Enzymes, Protein Glycation, Multiple Oxidants and Oxidative Stress-Induced Changes in Human Plasma Constituents” (Pharmaceuticals, 2022).
pIC50: −log10 of the molar value.

Experiments:
α-glucosidase = α-glucosidase inhibition assay (p-NPG hydrolysis, spectrophotometric); format: biochemical; details: mean ± SD (n = 3)
Procedure: The inhibition of α-glucosidase was evaluated according to the spectrophotometric method reported by Ma et al. with slight modifications. The enzyme activity measurement was based on the p-nitrophenyl-α-D-glucopyranoside (p-NPG) hydrolysis. In brief, 150 µL of a phosphate buffer (0.1 M, pH 6.9) solution of an extract or standard was mixed with the enzyme (0.43 U/mL, 50 µL) and pre-incubated for 15 min at 37 °C. Next, a 0.7 mM p-NPG solution in the buffer (50 µL) was added, and after 15 min of incubation, the reaction was stopped by adding Na2CO3 (0.2 M, 50 µL). Finally, the absorbance was read at 405 nm in a microplate reader. […] The inhibitory potential of the analytes towards α-glucosidase was expressed as a half inhibitory concentration (IC50), calculated from concentration-inhibition curves.

α-amylase = biological target: T1, α-amylase (Sus scrofa, UniProt P00690); assay: α-amylase inhibition assay (EnzChek Ultra Amylase Assay Kit, fluorometric); format: biochemical; details: mean ± SD (n = 3)
T1 construct: pancreatin from porcine pancreas; purchased Sigma-Aldrich; host or cells: porcine pancreas extract (pancreatin)
T1 sequence (P00690 16-511): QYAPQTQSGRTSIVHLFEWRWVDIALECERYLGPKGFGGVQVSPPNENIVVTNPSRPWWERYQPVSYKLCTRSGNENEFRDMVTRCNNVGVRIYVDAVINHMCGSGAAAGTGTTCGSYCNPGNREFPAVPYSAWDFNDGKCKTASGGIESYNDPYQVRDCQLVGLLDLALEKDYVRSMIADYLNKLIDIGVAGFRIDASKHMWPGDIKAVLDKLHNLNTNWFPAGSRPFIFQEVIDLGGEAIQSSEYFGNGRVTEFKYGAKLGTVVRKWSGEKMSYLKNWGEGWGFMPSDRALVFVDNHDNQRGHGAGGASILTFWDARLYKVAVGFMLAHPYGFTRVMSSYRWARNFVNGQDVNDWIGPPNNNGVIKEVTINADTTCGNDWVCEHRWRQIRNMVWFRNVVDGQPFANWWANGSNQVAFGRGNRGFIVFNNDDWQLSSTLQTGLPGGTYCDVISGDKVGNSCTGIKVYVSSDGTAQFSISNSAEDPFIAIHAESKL
Procedure: The inhibitory activity of the analytes towards α-amylase was determined fluorometrically according to Truba et al. using an EnzChek™ Ultra Amylase Assay Kit. The test was based on measuring products formed after the enzymatically catalysed hydrolysis of the corn starch substrate DQTM (labeled with the fluorescent dye BODIPY® FL). The fluorescence of the hydrolysate was read at 37 °C in a microplate reader at 485 nm and 535 nm for excitation and emission, respectively. […] The inhibitory potential of the analytes towards α-amylase was expressed as a half inhibitory concentration (IC50), calculated from concentration-inhibition curves.

[1] = system: AGEs formation (protein glycation, fructose-BSA); assay: inhibition of AGEs formation, fructose-bovine serum albumin (BSA) test system; details: mean ± SD (n = 3)
Procedure: The impact of the extracts/fractions on protein glycation was evaluated in the fructose-bovine serum albumin (BSA) test system with aminoguanidine as a positive control according to the fluorimetric method of Starowicz and Zieliński, modified by Rutkowska et al.. The fluorescence was measured at 37 °C in a microplate reader at 355 nm and 420 nm for excitation and emission, respectively. The results were reported as half inhibitory concentration (IC50) values, estimated using concentration-inhibition curves.

NO^• scavenging = details: mean ± SD of three replicates
Procedure: (§1) The scavenging efficiency of P. spinosa fruit extracts/fractions towards various ROS (O2^•−, HO^•, H2O2, HOCl, and NO^•) was tested using appropriate fluorimetric and spectrophotometric methods as described previously. Ascorbic acid and Trolox® served as positive controls. The results were expressed as half scavenging concentration (SC50) values, estimated using concentration-scavenging curves.

HOCl scavenging = details: mean ± SD of three replicates
Procedure: as §1

O2^•− scavenging = details: mean ± SD of three replicates
Procedure: as §1

H2O2 scavenging = details: mean ± SD of three replicates
Procedure: as §1

HO^• scavenging = details: mean ± SD of three replicates
Procedure: as §1

[2] = system: human plasma lipids (TBARS); assay: lipid peroxidation (TBARS) in human plasma exposed to ONOO^−; details: 5 μg/mL, compared with the other standard polyphenols
Procedure: Therefore, to check the potential preventive effects of P. spinosa fruit extracts against oxidative and nitrative injury of biomolecules, an experimental model of human blood plasma exposed to oxidative stress induced by ONOO^− (100–150 μM; achievable locally in vivo, e.g., in inflamed blood vessels) was applied. The process was monitored by measuring the oxidative stress biomarkers, including the products of protein nitration (3-nitrotyrosine, 3-NT), lipid peroxidation (thiobarbituric acid reactive substances, TBARS), as well as the total antioxidant capacity of plasma (NEAC). The extracts and fractions from fresh sloes were selected for the study due to their high ability to inhibit glycolytic enzymes, potent anti-glycation activity, and significant ROS/RNS-scavenging properties. […] The influence on the levels of oxidative stress biomarkers in plasma was evaluated using the appropriate immunoenzymatic and spectrophotometric methods. […] The results were calculated using the standard curve of nitro-fibrinogen (3-NT-Fg) and expressed as 3-NT-Fg equivalents (nmol/mg of plasma proteins). The TBARS levels of plasma lipids were determined spectrophotometrically and calculated in nmol/mL of plasma. The impact on the NEAC value was measured using the FRAP assay, with the results calculated from the standard curve of ferrous sulphate and expressed in mM of Fe^2+ equivalents.

human neutrophils = system: human neutrophils; parameters: method as in PMID 35630778; details: 50 μM; cited from earlier work

| SMILES | α-Glucosidase IC50 (α-glucosidase) | α-Amylase IC50 (α-amylase) | AGEs Formation IC50 [1] | Scavenging activity (SC50) NO^• (NO^• scavenging) | Scavenging activity (SC50) HOCl (HOCl scavenging) | Scavenging activity (SC50) O2^•− (O2^•− scavenging) | Scavenging activity (SC50) H2O2 (H2O2 scavenging) | Scavenging activity (SC50) HO^• (HO^• scavenging) | activity of model polyphenol in the TBARS test [2] | downregulation (reduction) of the ROS level in human neutrophils (human neutrophils) | pIC50 (α-amylase) |
| --- | --- | --- | --- | --- | --- | --- | --- | --- | --- | --- | --- |
| OC[C@H]1O[C@@H](Oc2cc3c(O)cc(O)cc3[o+]c2-c2ccc(O)c(O)c2)[C@H](O)[C@@H](O)[C@@H]1O [Cyanidin 3-O-glucoside, cyanidin 3-O-β-D-glucopyranoside] | 635.13 ± 34.43 ^H µg/mL | 31.28 ± 1.66 ^B µg/mL | 10.90 ± 0.85 ^A µg/mL | 1.40 ± 0.09 ^B µg/mL | 5.62 ± 0.11 ^A µg/mL | 10.11 ± 0.33 ^A µg/mL | 0.012 ± 0.001 ^A,B mg/mL | 0.17 ± 0.002 ^C mg/mL | especially active | – | – |
| O=Cc1ccc(CO)o1 [5-Hydroxymethylfurfural (HMF), 5-hydroxymethylfurfural] | ** (inactive up to 1000 µg/mL) | – | – | ** (inactive up to a concentration of 500 µg/mL) | ** (inactive up to a concentration of 500 µg/mL) | ** (inactive up to a concentration of 500 µg/mL) | *** (inactive up to 1500 µg/mL) | *** (inactive up to 1500 µg/mL) | – | 15% | – |
| O=c1c(O)c(-c2ccc(O)c(O)c2)oc2cc(O)cc(O)c12 [Quercetin, quercetin] | – | – | – | 0.48 ± 0.03 ^A µg/mL | 2.08 ± 0.14 ^A µg/mL | 7.89 ± 0.24 ^A µg/mL | 0.008 ± 0.001 ^A mg/mL | 0.05 ± 0.002 ^A mg/mL | – | 96% | – |
| O=c1c(O[C@@H]2O[C@H](CO)[C@@H](O)[C@H](O)[C@H]2O)c(-c2ccc(O)c(O)c2)oc2cc(O)cc(O)c12 [Quercetin 3-O-glucoside (isoquercitrin), quercetin 3-O-β-D-glucopyranoside] | 209.64 ± 5.64 ^G µg/mL | – | 3.09 ± 0.17 ^A µg/mL | – | – | – | – | – | – | – | – |
| N=C(N)NN [Aminoguanidine, aminoguanidine] | – | – | 78.89 ± 4.95 ^C µg/mL | – | – | – | – | – | – | – | – |
| Cc1c(C)c2c(c(C)c1O)CCC(C)(C(=O)O)O2 (stereo not shown) [Trolox] | – | – | – | 0.59 ± 0.02 ^A µg/mL | 21.49 ± 1.21 ^C µg/mL | 135.33 ± 5.59 ^F µg/mL | 0.020 ± 0.001 ^B mg/mL | 0.13 ± 0.003 ^B,C mg/mL | – | – | – |
| O=C1O[C@H]([C@@H](O)CO)C(O)=C1O [Ascorbic acid, ascorbic acid] | – | – | – | 0.59 ± 0.04 ^A µg/mL | 6.32 ± 0.07 ^A µg/mL | 5.28 ± 0.25 ^A µg/mL | 0.014 ± 0.001 ^A,B mg/mL | 0.14 ± 0.005 ^B,C mg/mL | – | – | – |
| O=C(/C=C/c1ccc(O)c(O)c1)O[C@@H]1C[C@](O)(C(=O)O)C[C@@H](O)[C@H]1O [Chlorogenic acid, 5-O-caffeoylquinic acid] | – | – | 7.07 ± 0.74 ^A µg/mL | – | – | – | – | – | – | – | 3.64 |
